According to patent US8735584B2 (Merck Patent GmbH, priority 2008, dated 2014):

Target: T1, GST-Aurora A (Homo sapiens, UniProt O14965)
T1 construct: N-terminal GST fusion with full length Aurora A (1-403 amino acids); purchased Carna Biosciences 05-101
T1 sequence (O14965 1-403): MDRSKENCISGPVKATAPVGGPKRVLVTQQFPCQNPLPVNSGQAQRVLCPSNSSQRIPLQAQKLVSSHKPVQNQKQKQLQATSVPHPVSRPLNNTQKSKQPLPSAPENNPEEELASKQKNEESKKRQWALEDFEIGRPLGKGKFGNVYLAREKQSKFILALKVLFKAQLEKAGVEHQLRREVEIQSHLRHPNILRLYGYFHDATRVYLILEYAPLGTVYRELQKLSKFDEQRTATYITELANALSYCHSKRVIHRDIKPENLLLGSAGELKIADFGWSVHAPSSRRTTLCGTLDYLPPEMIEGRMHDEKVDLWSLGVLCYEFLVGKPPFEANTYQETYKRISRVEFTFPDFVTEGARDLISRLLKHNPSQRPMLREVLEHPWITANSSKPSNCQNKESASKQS
Experiment: Aurora A IC50, Caliper LC3000 mobility shift assay
Assay type: biochemical
Settings: LC3000 method; 15 uM ATP (the KM value); read-out: Aurora Kinase A Activity (IC50)
Description: The Aurora assays described here are performed on two Caliper Life Sciences systems: the LC3000 and the Desktop Profiler. These provide data on enzyme activity via measurement of the relative amounts of phosphorylated or unphosphorylated fluorescently labelled substrate peptide at the end of an enzymatic reaction. These different states of peptide are resolved by applying a potential difference across the sample. The presence of the charged phosphate group on the product (as opposed to the substrate) causes a different peptide mobility between the two peptides. This is visualized by excitation of the fluorescent label on the substrate and product peptides and represented as peaks within the analysis software.
In order to measure inhibitor activity of Aurora A inhibitors in the Caliper Life Sciences LC3000, a TTP Mosquito liquid handling instrument is used to place 0.25 ul of the appropriate concentration of inhibitor in 100% DMSO (for a dose response curve calculation) into each well of a 384-well plate. To this reaction components are added to a final volume of 25 ul: • 0.067 ng/ul GST-Aurora A (Carna Biosciences 05-101. N-terminal GST fusion with full length Aurora A (1-403 amino acids), accession number NP 940835.1). • 15 uM ATP (Fluke, 02055) • 1 mM DTT (Sigma, D0632) • 1 mM MgCl2 (Sigma, M1028) • 1 uM substrate peptide (sequence FITC-LRRASLG-(CONH2), synthesized by Tufts Peptide Synthesis service. • 100 mM HEPES pH 7.5 (Calbiochem, 391338) • 0.015% Brij-35 (Sigma, B4184)
The reaction is incubated for 90 min at 25 C, and then stopped by the addition of 70 ul of Stop buffer (100 mM HEPES pH 7.5, 0.015% Brij-35, 10 mM EDTA (Sigma, E7889)).
The plate is read on a Caliper LC3000 in an Off-Chip mobility shift assay format, using the following parameters for a 12-sipper chip: screening pressure—1.8 psi, upstream voltage—2700, downstream voltage—1000. These conditions cause unphosphorylated substrate and phosphorylated product peptide to resolve as separate peaks allowing direct measurement of percentage of conversion of substrate to product. The percent conversion can be plotted against concentration of inhibitor to produce a sigmoidal dose response curve, from which an 1050 can be calculated using XLFit for Microsoft Excel.
In the desired wells of a 384-well plate, Aurora A (0.067 ng/ul) was incubated with 15 uM ATP (the KM value), 1 mM DTT, 1 mM MgCl2, and 1 uM peptide substrate (sequence FITC-LRRASLG-(CONH2), FITC=fluorescein isothiocyanate) in 100 mM HEPES pH 7.5 and 0.015% Brij-35 buffer. The reaction was incubated for 90 min at 25 C, and then stopped by the addition of 45 ul of Stop buffer (100 mM HEPES ph 7.5, 0.015% Brij-35, 10 mM EDTA).
The plate was read in a Caliper LC 3000 in an Off-Chip mobility shift assay format, using the following parameters: screening pressure—1.8 psi, upstream voltage—2700, downstream voltage—1000. These conditions cause unphosphorylated substrate peptide to resolve as a peak before that of the phosphorylated peptide product.
In the following table “+” means >100 nM, “++” means 11-100 nM, and “+++” means <11 nM.

SMILES	IC50 [nM]
CN1CCN(c2ccc3c(=O)[nH]c4nccc(Nc5ccc(NC(=O)c6ccccc6)cc5)c4c3c2)CC1 [Compound 294, N-(4-(9-(4-methylpiperazin-1-yl)-6-oxo-5,6-dihydrobenzo[c][1,8]naphthyridin-1-ylamino)phenyl)benzamide]	11 to 100
CN(C)CCNC(=O)c1ccc2c(=O)[nH]c3nccc(Cl)c3c2c1 [Compound 296, 1-Chloro-N-(2-(dimethylamino)ethyl)-6-oxo-5,6-dihydrobenzo[c][1,8]naphthyridine-9-carboxamide]	> 100
CN(C)CCNC(=O)c1ccc2c(=O)[nH]c3nccc(Nc4ccc(NC(=O)c5ccc(F)cc5C(F)(F)F)cc4)c3c2c1 [Compound 297, N-(2-(Dimethylamino)ethyl)-1-(4-(4-fluoro-2-(trifluoromethyl)benzamido)phenylamino)-6-oxo-5,6-dihydrobenzo[c][1,8]naphthyridine-9-carboxamide]	< 11
CN(C)CCNC(=O)c1ccc2c(=O)[nH]c3nccc(Nc4ccc(NC(=O)c5ccc(F)c(F)c5)cc4)c3c2c1 [Compound 298, 1-(4-(3,4-Difluorobenzamido)phenylamino)-N-(2-(dimethylamino)ethyl)-6-oxo-5,6-dihydrobenzo[c][1,8]naphthyridine-9-carboxamide]	< 11
O=C(Cc1ccc(Nc2ccnc3[nH]c(=O)c4ccccc4c23)cc1)Nc1ccccc1 [Compound 303, 2-(4-(6-Oxo-5,6-dihydrobenzo[c][1,8]naphthyridin-1-ylamino)phenyl)-N phenylacetamide]	11 to 100
Cc1cc(Nc2ccnc3[nH]c(=O)c4ccccc4c23)n(CC(=O)Nc2ccccc2)n1 [Compound 308, 2-(3-Methyl-5-(6-oxo-5,6-dihydrobenzo[c][1,8]naphthyridin-1-ylamino)-1H-pyrazol-1-yl)-N-phenylacetamide]	> 100
Cc1cc(Nc2ccnc3[nH]c(=O)c4ccccc4c23)n(CC(=O)Nc2ccc(F)c(F)c2)n1 [Compound 309, N-(3,4-difluorophenyl)-2-(3-methyl-5-(6-oxo-5,6-dihydrobenzo[c][1,8]naphthyridin-1-ylamino)-1H-pyrazol-1-yl)acetamide]	> 100
O=C(Cc1cc(Nc2ccnc3[nH]c(=O)c4ccccc4c23)n[nH]1)Nc1ccc(F)c(F)c1 [Compound 313, N-(3,4-Difluorophenyl)-2-(3-(6-oxo-5,6-dihydrobenzo[c][1,8]naphthyridin-1-ylamino)-1H-pyrazol-5-yl)acetamide]	> 100
O=C(Cc1cc(Nc2ccnc3[nH]c(=O)c4ccccc4c23)n[nH]1)Nc1cccc(F)c1 [Compound 314, N-(3-Fluorophenyl)-2-(3-(6-oxo-5,6-dihydrobenzo[c][1,8]naphthyridin-1-ylamino)-1H-pyrazol-5-yl)acetamide]	> 100
O=C(Cc1cc(Nc2ccnc3[nH]c(=O)c4ccccc4c23)n[nH]1)Nc1ccccc1 [Compound 315, 2-(3-(6-Oxo-5,6-dihydrobenzo[c][1,8]naphthyridin-1-ylamino)-1H-pyrazol-5-yl)-N-phenylacetamide]	> 100
O=C(Nc1ccccc1)c1ccc(Nc2ccnc3[nH]c(=O)c4ccccc4c23)cc1 [Compound 317, 4-(6-Oxo-5,6-dihydrobenzo[c][1,8]naphthyridin-1-ylamino)-N-phenylbenzamide]	> 100
O=C(Nc1ccc(Nc2ccnc3[nH]c(=O)c4ccccc4c23)cc1F)c1ccccc1 [Compound 320, N-(2-Fluoro-4-(6-oxo-5,6-dihydrobenzo[c][1,8]naphthyridin-1-ylamino)phenyl) benzamide]	11 to 100
O=C(Nc1ccc(Nc2ccnc3[nH]c(=O)c4ccccc4c23)c(F)c1)c1ccccc1 [Compound 321, N-(3-Fluoro-4-(6-oxo-5,6-dihydrobenzo[c][1,8]naphthyridin-1-ylamino)phenyl)benzamide]	< 11
Cc1cc(Nc2ccnc3[nH]c(=O)c4ccccc4c23)ccc1NC(=O)c1ccccc1 [Compound 322, N-(2-Methyl-4-(6-oxo-5,6-dihydrobenzo[c][1,8]naphthyridin-1-ylamino)phenyl)benzamide]	> 100
O=C(Nc1ccc(Nc2ccnc3[nH]c(=O)c4ccccc4c23)cn1)c1ccccc1 [Compound 324, N-(5-(6-Oxo-5,6-dihydrobenzo[c][1,8]naphthyridin-1-ylamino)pyridin-2-yl)benzamide]	11 to 100
O=C(Nc1ccc(CNc2ccnc3[nH]c(=O)c4ccccc4c23)cc1)c1ccccc1 [Compound 325, N-(4-((6-Oxo-5,6-dihydrobenzo[c][1,8]naphthyridin-1-ylamino)methyl)phenyl)benzamide]	11 to 100
O=C(Nc1ccc(CNc2ccnc3[nH]c(=O)c4ccccc4c23)cc1)c1cc(F)cc(F)c1 [Compound 326, 3,5-Difluoro-N-(4-((6-oxo-5,6-dihydrobenzo[c][1,8]naphthyridin-1-ylamino)methyl)phenyl)benzamide]	11 to 100
O=C(NCc1ccc(Nc2ccnc3[nH]c(=O)c4ccccc4c23)cc1)c1ccccc1 [Compound 327, N-(4-(6-oxo-5,6-dihydrobenzo[c][1,8]naphthyridin-1-ylamino)benzyl)benzamide]	11 to 100
O=c1[nH]c2nccc(Nc3ccc(OCc4ccccc4)cc3)c2c2ccccc12 [Compound 329, 1-(4-(Benzyloxy)phenylamino)benzo[c][1,8]naphthyridin-6(5H)-one]	11 to 100
O=c1[nH]c2nccc(Nc3ccc(OCc4cccc(F)c4)cc3)c2c2ccccc12 [Compound 330, 1-(4-(3-Fluorobenzyloxy)phenylamino)benzo[c][1,8]naphthyridin-6(5H)-one]	11 to 100
O=c1[nH]c2nccc(Nc3ccc4c(cnn4Cc4ccccc4)c3)c2c2ccccc12 [Compound 333, 1-(1-Benzyl-1H-indazol-5-ylamino)benzo[c][1,8]naphthyridin-6(5H)-one]	11 to 100
Cn1ccc(-c2ccc(Nc3ccnc4[nH]c(=O)c5ccccc5c34)cc2)n1 [Compound 335, 1-(4-(1-Methyl-1H-pyrazol-3-yl)phenylamino)benzo[c][1,8]naphthyridin-6(5H)-one]	> 100
O=c1[nH]c2nccc(Nc3ccc(NS(=O)(=O)c4ccccc4)cc3)c2c2ccccc12 [Compound 341, N-(4-(6-Oxo-5,6-dihydrobenzo[c][1,8]naphthyridin-1-ylamino)phenyl)benzenesulfonamide]	> 100
CNC(=O)Nc1ccc(Nc2ccnc3[nH]c(=O)c4ccccc4c23)cc1 [Compound 342, 1-Methyl-3-(4-(6-oxo-5,6-dihydrobenzo[c][1,8]naphthyridin-1-ylamino)phenyl)urea]	11 to 100
O=C(Nc1ccccc1)Nc1ccc(Nc2ccnc3[nH]c(=O)c4ccccc4c23)cc1 [Compound 343, 1-(4-(6-Oxo-5,6-dihydrobenzo[c][1,8]naphthyridin-1-ylamino)phenyl)-3-phenylurea]	< 11
O=C(Nc1ccc(Nc2ccnc3[nH]c(=O)c4ccccc4c23)cc1)c1cccnc1 [Compound 344]	11 to 100
Cn1ccc(C(=O)Nc2ccc(Nc3ccnc4[nH]c(=O)c5ccccc5c34)cc2)n1 [Compound 345, 1-methyl-N-(4-(6-oxo-5,6-dihydrobenzo[c][1,8]naphthyridin-1-ylamino)phenyl)-1H-pyrazole-3-carboxamide]	11 to 100
